Target: T1, Human RORγ Ligand Binding Domain (RORγ-LBD) (Homo sapiens, UniProt P51449)
T1 construct: His6 with thrombin site) (N); made in house; host or cells: E. coli BL21(DE3), modified pET21a vector
T1 sequence (P51449 263-518): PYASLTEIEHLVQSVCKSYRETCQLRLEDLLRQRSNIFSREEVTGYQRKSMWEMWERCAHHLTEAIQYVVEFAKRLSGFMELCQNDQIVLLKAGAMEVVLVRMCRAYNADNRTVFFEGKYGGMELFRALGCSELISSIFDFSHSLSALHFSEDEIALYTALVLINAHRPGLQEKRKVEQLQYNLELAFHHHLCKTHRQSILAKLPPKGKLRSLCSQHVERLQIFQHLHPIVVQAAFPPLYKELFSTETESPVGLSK
Test: Dual Fluorescence Energy Transfer (FRET) assay: co-activator SRC1(2) peptide interaction with RORγ-LBD
Assay type: biochemical
Conditions: RORγ-LBD / SRC1(2) peptide, read-out: mean pIC50 (converted)

IC50: 63.1 nM
SMILES: CCc1ccc(N(CC(C)C)S(=O)(=O)c2ccc([C@@H](O)CN3CCOCC3)c(CO)c2)cc1 [Example E126, N-(4-ethylphenyl)-4-(1-hydroxy-2-morpholinoethyl)-3-(hydroxymethyl)-N-isobutylbenzenesulfonamide]

— US9428452B2, “Compounds” (Glaxo Group Limited, priority 2012, dated 2016)
